Laboratory results taken from PubChem BioAssay (NCI).
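Where inhibition never reached the appropriate level, the endpoint shown equals the highest concentration tested. Otherwise, values were interpolated linearly from a five-concentration, 48-hour dose response in 96-well plates. At the TGI there is no net growth.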

How the values were obtained:
Assay in all cases: NCI tumour cell line growth inhibition, 48 h
CCRF-CEM leukemia = tested on: CCRF-CEM leukemia
DLD-1 colon = tested on: DLD-1 colon
DMS 114 small cell lung = tested on: DMS 114 small cell lung
DMS 273 small cell lung = tested on: DMS 273 small cell lung
HOP-18 NSCLC = tested on: HOP-18 NSCLC
KM20L2 colon = tested on: KM20L2 colon
LXFL 529 NSCLC = tested on: LXFL 529 NSCLC
M19-MEL melanoma = tested on: M19-MEL melanoma
MOLT-4 leukemia = tested on: MOLT-4 leukemia
NCI-H226 lung = tested on: NCI-H226 lung
OVCAR-4 ovarian = tested on: OVCAR-4 ovarian
RXF-631 renal = tested on: RXF-631 renal
UACC-257 melanoma = tested on: UACC-257 melanoma
XF 498 CNS = tested on: XF 498 CNS
SNB-78 CNS = tested on: SNB-78 CNS
MDA-MB-231 breast = tested on: MDA-MB-231 breast

Row | SMILES | TGI (CCRF-CEM leukemia) | TGI (DLD-1 colon) | TGI (DMS 114 small cell lung) | TGI (DMS 273 small cell lung) | TGI (HOP-18 NSCLC) | TGI (KM20L2 colon) | TGI (LXFL 529 NSCLC) | TGI (M19-MEL melanoma) | TGI (MOLT-4 leukemia) | TGI (NCI-H226 lung) | TGI (OVCAR-4 ovarian) | TGI (RXF-631 renal) | TGI (UACC-257 melanoma) | TGI (XF 498 CNS) | TGI (SNB-78 CNS) | TGI (MDA-MB-231 breast)
1 | CC1=CP(=O)(OC(C)C)C=C(C)C1=C(Cl)Cl (centres undefined) | > 100 µM | > 100 µM | > 100 µM | > 100 µM | > 100 µM | > 100 µM | > 100 µM | > 100 µM | > 100 µM | 87.2 µM | > 100 µM | > 100 µM | > 100 µM | > 100 µM |  | 
2 | Cc1cc(C(O)CCCc2ccccc2)cc(C)c1O (centres undefined) | > 100 µM |  | > 100 µM |  | > 100 µM | > 100 µM | > 100 µM | > 100 µM | 73.8 µM | > 100 µM |  | > 100 µM | 95.6 µM |  | > 100 µM | 
3 | Cc1c(N)c(C#N)c2n(C)c3ncccc3n2c1=O | > 100 µM | > 100 µM |  | > 100 µM | > 100 µM | > 100 µM | > 100 µM | > 100 µM | > 100 µM | > 100 µM | > 100 µM |  | > 100 µM | > 100 µM | > 100 µM | 
4 | C=C(CN(C)C)C(=O)c1ccccc1 | 3.17 µM | 11.5 µM | 11.1 µM | 39.2 µM | 14.8 µM | 39.8 µM | 5.64 µM | 22.9 µM | 15.3 µM | 36 µM | 39.3 µM | 48.5 µM | 27.6 µM | 29.9 µM | 62.6 µM | 31.4 µM
5 | O=C1NC(=S)NC(=O)C1=Cc1ccc([N+](=O)[O-])o1 | 73.6 µM | 39 µM | 34.6 µM | 37.8 µM | 35.3 µM | 43.1 µM | 30.5 µM | 36.8 µM | 43.4 µM | > 100 µM | 31.1 µM | 33.5 µM | > 100 µM | 52.3 µM | 49.3 µM | 
6 | O=[N+]([O-])c1ccccc1S(=O)(=O)c1cccc2c1NCCC2 | > 100 µM |  |  |  |  |  |  |  | > 100 µM | > 100 µM | > 100 µM |  | 63.2 µM |  |  | > 100 µM
7 | COc1ccc(/C=N/NS(=O)(=O)c2ccc(/C=C3\NC(=O)NC3=O)cc2)cc1 | > 100 µM |  |  |  |  |  |  |  | > 100 µM | > 100 µM | > 100 µM |  | > 100 µM |  |  | > 100 µM
8 | C=C1[C@@H](OC(C)=O)/C=C/C2C3C(=O)[C@@](C)(OC(C)=O)[C@H]([C@H](OC(C)=O)[C@]4(O)[C@@H](C)C(=O)O[C@H]4[C@H]1Cl)[C@@]23C (some centres undefined) | > 100 µM |  |  |  |  |  |  |  | > 100 µM | > 100 µM | > 100 µM |  | > 100 µM |  |  | > 100 µM
9 | O=C(N[C@H](CO)[C@H](O)c1ccc([N+](=O)[O-])cc1)C(Cl)Cl | > 100 µM | > 100 µM | > 100 µM | > 100 µM |  | > 100 µM | > 100 µM | > 100 µM | > 100 µM | > 100 µM | > 100 µM |  | > 100 µM |  |  | > 100 µM
